Results from patent US20190085334A1, “TREATMENT OF NEUROINFLAMMATION IN NEUROLOGICAL DISORDERS” (Board of Trustees of Michigan State University, priority 2017, published 2019).

Key:
[1] = test system: CXCL10 production from monocytes; assay: CXCL10 production from interferon-stimulated monocytes, intracellular staining on flow cytometry; assay type: cell-based, human
Experimental: (§1) Cells are plated at 3×10^5 cells/well for PBMC and isolated monocyte experiments, and 1×10^5 cell/well for isolated neutrophil experiments, in 96-well plates. Cells are cultured in complete RPMI (RPMI 1640, 10% FBS, 1×PSF). For cross-linking experiments 10 μg/mL anti-SLAMF7 mAb or SLAMF7-Fc is added to a sterile, high-binding 96-well cell culture plate O/N at 4° C. For all in vitro flow cytometry experiments, cells are cultured in the presence of stimuli for 17-18 h. In the monocyte maturation assay as shown in FIG. 18E the cells are stimulated with only 25 IU/mL IFNα for exactly 24 h. Small molecule inhibitors are added 45-60 min before IFNα for all relevant experiments. For experiments involving intracellular staining, BD GolgiPlug is added for the final 5 h. NK92 cells are purchased from ATCC and cultured as indicated by manufacturer.
(§2) Cells are prepared and stained as previously described. Intracellular staining is performed using the BD fixation/permeabilization kit (BD Biosciences) per manufacturer's instructions. Transcription factor staining is performed with the Transcription Factor Buffer Set (BD Pharmingen) per manufacturer's instructions. Samples are analyzed on either a BD LSR II or BD FACSCanto. LIVE/DEAD staining with Aqua fixable stain (ThermoFisher) is included during initial experiments and cell viability is verified to be greater than 90%.

[2] = test system: SLAMF7 expression on monocytes; assay: SLAMF7 expression on PBMCs and monocytes by flow cytometry; assay type: cell-based, human
Experimental: as §1, §2

[3] = test system: isolated monocytes; assay: qRT-PCR of chemokine and ISG mRNA in isolated monocytes; assay type: cell-based, human; details: IFNα and SLAMF7 cross-linking; SHP1/2 inhibitor 10 μM
Experimental: Isolated monocytes are plated in 96-well plates at 3×10^5 cells/well and stimulated as indicated for 4 h. Cells are harvested and placed into Trizol (ThermoFisher) and RNA is isolated per manufacturer's instructions. RNA is reverse transcribed with SuperStrand First Strand Synthesis Kit III (Invitrogen) per manufacturer's instructions and analyzed on a QuantStudio7 system (ThermoFisher). GAPDH is used as a housekeeping gene and the ΔΔCt method is used for analysis.

[4] = biological target: T1, CXCL10 (Homo sapiens, UniProt P02778); details: monoclonal antibodies to reduce CXCL10; cited from earlier work
T1 sequence (P02778 22-98): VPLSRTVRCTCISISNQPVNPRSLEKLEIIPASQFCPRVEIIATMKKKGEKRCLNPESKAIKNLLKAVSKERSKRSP

[5] = test system: SLAMF7 expression on neutrophils; assay: SLAMF7 expression on neutrophils by flow cytometry; assay type: cell-based, human; details: presence and absence of IFNα stimulation
Experimental: as §1
Cells are prepared and stained as previously described. Intracellular staining is performed using the BD fixation/permeabilization kit (BD Biosciences) per manufacturer's instructions. […] Samples are analyzed on either a BD LSR II or BD FACSCanto. […]
(§3) CD14^+ monocytes are isolated from PBMCs via positive selection using CD14 Microbeads (Miltenyi Biotec) per manufacturer's instructions. Purity is consistently greater than 90% as assessed by flow cytometry. […] Purity is consistently greater than 98% as assessed by flow cytometry.

[6] = test system: isolated neutrophils; assay: Cytokine/chemokine release from isolated neutrophils, BioPlex assay; assay type: cell-based, human
Experimental: as §1
For analysis of cell culture, supernatant and plasma samples 80 μL of media or plasma is used, undiluted, and the assay is run per manufacturer's instructions (Bio-Rad, Hercules, Calif.) via Luminex 100 technology. […]
as §3

[7] = SLAMF7-stimulated cells, IFNα, 100 nM

CC(C)CCC[C@@H](C)[C@H]1CC[C@H]2[C@@H]3CCC4C[C@H](N)CC[C@]4(C)[C@H]3CC[C@]12C (some centres unmarked) [3AC]
recovery of CXCL10 expression ([1]; monocytes stimulated with IFNα and SLAMF7 cross-linking, pre-treatment 5 μM): does not result in recovery of CXCL10 expression

CC(C)C[C@H](NC(=O)[C@H](Cc1ccccc1)NC(=O)c1cnccn1)B(O)O [Bortezomib]
CXCL10 production [1, 7]: further decreases CXCL10 production | recovery of CXCL10 expression [1, 7]: does not result in recovery of CXCL10 expression | SLAMF7 expression on monocytes ([2]; with IFNα, 100 nM): acts synergistically with IFNα to upregulate SLAMF7 expression

CC(C)(C)C(=O)Nc1ccc2c(c1)C(=O)C(=O)c1ccccc1-2 [CAS 345630-40-2]
rescue of CXCL10 production ([1]; IFNα and SLAMF7 cross-linking, pre-treatment 1 μM): fails to rescue CXCL10 production

O=C(/C=C/c1ccc(CN(CCO)CCc2c[nH]c3ccccc23)cc1)NO [Dacinostat]
IFNα-mediated SLAMF7 up-regulation ([2]; classical monocytes, IFNα plus HDACi): prevents IFNα-mediated SLAMF7 up-regulation

O=S(=O)(O)c1ccc2cc(N=Nc3cc(S(=O)(=O)O)c4cccnc4c3O)ccc2c1 [NSC87877]
recovery of CXCL10 expression ([1]; monocytes stimulated with IFNα and SLAMF7 cross-linking, pre-treatment 10 μM): does not result in recovery of CXCL10 expression | involvement of SHP1/2 in alpha chemokine inhibition [3]: not involved in alpha chemokine inhibition

BMS-936557: anti-CXCL10 monoclonal antibody (Brisol-Myers Squibb)
anti-inflammatory activity [4]: limited anti-inflammatory activity

IFNα
SLAMF7 expression on neutrophils [5]: unable to upregulate SLAMF7 | CXCL10 release from neutrophils ([6]; IFNα by itself, neutrophils from HCs and HIV+ patients): can induce CXCL10 release | SLAMF7 response of CD14+ monocytes ([2]; CD14+ monocytes, IFNα 100 IU/mL): most robust SLAMF7 response | percent of SLAMF7+ PBMCs ([2]; total PBMCs from HIV+ patients, IFNα 100 IU/mL): minor, but significant increase

lipopolysaccharide [LPS]
CXCL10 release from neutrophils ([6]; LPS added to IFNα): enhanced
